This is an account of results in PubChem BioAssay (NCI).

“And” between values parts separate entries of the source, which are not always exact repeats. Identical values can stand only once.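 Growth conditions: 96-well plates. Treatment: test compound, 48 hours, 5 concentrations. Analysis: linear interpolation between bracketing concentrations; unreached endpoints set to highest concentration. GI50 marks 50% less growth. The concentration for full growth arrest is given as TGI.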

Holding throughout (test): NCI tumour cell line growth inhibition, 48 h
The test system of test [1] is NCI-H23 lung.
Test [2] concerns HCT-116 colon.
The test system of test [3] is SNB-78 CNS.
The subject of test [4] is 786-0 renal.
Test [5] concerns OVCAR-4 ovarian.
Test [6] deals with SK-MEL-5 melanoma.
In test [7] the test system is OVCAR-3 ovarian.
Test [8] concerns SF-539 CNS.
For test [9], the system named is UACC-62 melanoma.
For test [10], the system named is RPMI-8226 leukemia.

`CC(=O)OCC(OC(C)=O)C(OC(C)=O)C(OC(C)=O)C(=O)CNn1c(-c2ccccc2Cl)nc2ccccc2c1=O` (configuration not stated): the TGI in [1], in [2], in test [3], in test [4], in [5] and in test [6] was over 100 µM throughout. Also, the TGI in [7], in [8], in [9] and in test [10] was over 100 µM throughout.
For the compound `Cc1cccc(C)c1NC(=O)C1C(=O)N(c2c(C)cccc2C)C(=O)/C1=N\NC(N)=S` (configuration not stated), the TGI in [1], in test [2], in [3], in test [4], in test [5] and in [6] was over 100 µM in each case. Moreover, the TGI in [7], in [8], in [9] and in test [10] was over 100 µM each time.
In the case of `COc1ccc(N2C(=O)[C@H]3CC(C)c4c([nH]c5ccccc45)[C@H]3C2=O)cc1` (some centres not stated), the TGI in [1] was 29.4 µM; in test [2] it was 30.8 µM; in test [3], over 59.5 µM; in test [4] it was 16.4 µM; in test [5], 30.6 µM; in test [6], 36.6 µM. Further, the TGI in test [7] was determined as 6.68 µM; in [8] it was 10.5 µM; in test [9] it was 22.7 µM; in test [10] it was 39.3 µM.
Consider `C/C=C1\NC(=O)[C@H]2CSSCCC=C[C@H](CC(=O)N[C@H](C(C)C)C(=O)N2)OC(=O)[C@H](C(C)C)NC1=O`, for which the GI50 in test [1] is under 0.01 µM; in test [2] it was under 0.01 µM; in [3], 0.0123 µM; in test [4], < 0.01 µM and 0.000554 µM; in test [5], 0.0109 µM and < 0.0102 µM; in test [6] it was under 0.01 µM. In addition, the GI50 in [7], in test [8], in test [9] and in [10] was under 0.01 µM each time. Besides, the TGI was < 0.01 µM and 0.0145 µM and 0.0193 µM in test [2]; 0.201 µM and 0.0892 µM and 0.619 µM in test [5]; < 0.01 µM and 0.000359 µM in [6]; < 0.0108 µM and 0.00294 µM in [7]; 0.179 µM and 0.051 µM and 0.0469 µM in test [8]; < 0.01 µM and 0.0113 µM in [9].
`N.N.N.N.O=C([O-])C(Cl)Cl.O=C([O-])C(Cl)Cl.[Co+3].[O-][Cl+3]([O-])([O-])[O-]`: the GI50 in test [1], in test [2], in test [3], in test [4], in [5] and in test [6] was over 100 µM each time. Further, the GI50 in test [7], in [8], in test [9] and in test [10] was over 100 µM in each case. Besides, the TGI in test [1], in [2], in test [3], in test [4], in test [5] and in [6] was over 100 µM in each case. Moreover, the TGI in test [7], in test [8], in test [9] and in test [10] was over 100 µM each time.
Regarding `CCOC(=O)c1s/c(=N\Nc2nc3ccccc3cc2C2OCCO2)n(Cc2ccccc2)c1C`, the TGI in [1], in test [2], in test [3], in test [4], in test [5] and in test [6] was over 100 µM in each case. The TGI in [7], in [8], in test [9] and in [10] was over 100 µM each time.
`N#CCCN(CCC#N)c1ccc(C(Sc2ccccc2)C(NC(=O)c2cc([N+](=O)[O-])ccc2Cl)C(=O)Sc2ccccc2)cc1` (configuration not stated): the GI50 is 2.84 µM in test [1]; 1.85 µM in test [2]; 2.97 µM in [3]; 3.92 µM in test [5]; 2.14 µM in test [7]; 2.58 µM in test [9]. Further, the TGI is 13.5 µM in [1]; 5.51 µM and 5.62 µM in [2]; 34.5 µM in [3]; 3.95 µM in [4]; 15.7 µM in test [5]; 15.6 µM in test [6]. Also, the TGI in test [7] is 8.36 µM and 7.63 µM; in test [8], 4.11 µM and 3.79 µM; in test [9], 6.02 µM and 10.5 µM; in test [10] it was 5.66 µM.
For `Cc1ccccc1C1=C(C(=O)Nc2ccc(Cl)c(Cl)c2)NC(=S)NC1N` (configuration not stated), the TGI in test [1], in test [2], in [3], in [4], in test [5] and in [6] was over 100 µM throughout. Also, the TGI in test [7], in test [8], in [9] and in test [10] was over 100 µM throughout.
In the case of `O=C(c1ccncc1)n1nc(-c2ccccc2)c(N=Nc2ccccc2[N+](=O)[O-])c1-c1ccccc1`, the TGI in test [1], in test [2], in [3], in [4], in test [5] and in test [6] was over 100 µM in each case. For the same compound, the TGI in test [7], in test [8], in test [9] and in [10] was over 100 µM each time.
